IC50, IC90 and growth inhibition data for 83 molecules are collected here from PubChem BioAssay AID504702 (Southern Research Specialized Biocontainment Screening …, 2011).

Values joined by “and” are separate entries in the source; they are usually repeats but may differ in a detail not shown here. Equal entries are not always repeated. Active and inactive are the calls of the source. No rule for the calls is given here. A value given as a limit tells only on which side of the number the result lay.

For orientation: IC50 means the point on the concentration scale where inhibition reaches its midpoint. What is called IC90 is the concentration needed for an effect of 90%. Lower therefore signals an effect from little substance.

Test [1] concerns M. tuberculosis H37Rv with meropenem, growth inhibition. The experiment in a line: M. tuberculosis growth inhibition with meropenem, dose response, H37Rv, set 2 (AID 504702).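 As to all read-outs here: growth read by Alamar Blue after 7 days plus overnight incubation.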 Conditions: for IC90: measured here: IC90 growth with meropenem.
Test in test [2]: as above
Conditions: M. tuberculosis H37Rv with meropenem, growth inhibition.

For `CCOc1ccc2c(c1)c(C(C)=O)c(C)n2-c1ccccc1C`, in test [1], the IC50 was 3.43 µM and the IC90 turned out to be 12.1 µM. For the molecule `COc1ccccc1C(=O)N/C(N)=N/c1nc2ccccc2o1`, the growth inhibition in test [2] (at 25 µM (top of the series)) was 0.18% (inactive). As for `Cc1ccccc1OCC(=O)Nc1ccccc1N1CCCCC1`, in test [1], the IC50 is 6.13 µM and 8.97 µM; the IC90 was greater than 25 µM. Turning to `Cc1ccccc1C(=O)Nc1nc2ccccc2[nH]1`, in test [1], the IC50 was 8.75 µM and the IC90 is greater than 25 µM.

For the molecule `Cc1ccccc1OCC(=O)Nc1ncccn1`, in test [2] (at 25 µM (top of the series)), the growth inhibition was 3.04% (inactive).

Regarding `CCOc1ccc2nc(NC(=O)C(C)Oc3ccccc3F)sc2c1` (stereo not given), the growth inhibition in test [2] (at 25 µM (top of the series)) was 2.03% (inactive). Take `CCOc1ccc2c(ccn2-c2ccccc2)c1`: in test [2] (at 25 µM (top of the series)), the growth inhibition is -1.15% (inactive). `COc1cccc(NC(=S)Nc2cc(C)cc(C)n2)c1`: in test [1], the IC50 was 7.2 µM and the IC90 was greater than 25 µM. Regarding `Cc1ccccc1OCC(=O)Nc1ncn[nH]1`, the growth inhibition in test [2] (at 25 µM (top of the series)) is 0.97% (inactive). In the case of `CCOc1ccc2c(c1)c(C(C)=O)c(C)n2-c1ccccc1Cl`, in test [1], the IC50 was 13.6 µM and the IC90 is greater than 25 µM. For `CC(=O)c1c(C)n(-c2ccccc2)c2ccccc12`, in test [1], the IC50 was 11.6 µM and the IC90 was greater than 25 µM.

`O=C(CSc1n[nH]c(=O)n1C1CC1)c1ccc2c(c1)OCCO2`: in test [1], the IC50 is 4.57 µM and the IC90 was greater than 25 µM. Take `O=C(CCS(=O)(=O)c1ccc(F)cc1)Nc1nnc(-c2cccs2)o1`: in test [1], the IC50 was 22.4 µM and the concentration for an effect of 90% (IC90) was greater than 25 µM. The like results for `COC(=O)c1c(C)n(-c2ccccc2)c2ccc(O)cc12` were, in that order, 8.43 µM and greater than 18.8 µM. Consider `N/C(=N\c1nc2ccccc2o1)NC(=O)c1ccccc1F`, for which the growth inhibition in test [2] (at 25 µM (top of the series)) is -5.8% (inactive).

With `O=C(CC12CC3CC(CC(C3)C1)C2)NCc1ccc(F)cc1`, the growth inhibition in test [2] (at 18.8 µM (top of the series)) is -0.16% (inactive); in test [2] (at 25 µM (top of the series)), -0.41% (inactive). Turning to `Cc1cc2cc(F)ccc2[nH]1`, the growth inhibition in test [2] (at 25 µM (top of the series)) is 1.92% (inactive).

As for `CC(C)Cn1c2c(c(O)c(C(=O)Nc3nccs3)c1=O)CCCC2`, the growth inhibition in test [2] (at 18.8 µM (top of the series)) was 3.14% (inactive); in test [2] (at 25 µM (top of the series)), -0.17% (inactive).

Consider `COc1ccc2c(c1)cc(C)n2-c1ccccc1`, for which, in test [1], the IC50 is 6.88 µM and the IC90 is greater than 25 µM. Take `COC(=O)c1c(C)[nH]c2ccc(Cl)cc12`: in test [2] (at 25 µM (top of the series)), the growth inhibition was -8.83% (inactive). Still for that read-out and setting: the same measure for `Cc1ccc(OCC(=O)Nc2cccc3c(NC(=O)COc4ccc(C)cc4C)cccc23)c(C)c1`: -7.16% (inactive). For `COc1ccc2c(c1)c(C(C)=O)c(C)n2-c1ccccc1`, in test [1], the IC50 was 0.53 µM and 1.3 µM; the IC90 was greater than 18.8 µM. `CCc1ccc2nc(/N=C(\N)NC(=O)c3ccccc3)nc(C)c2c1`: in test [1], the IC50 is 0.82 µM and the IC90 is greater than 25 µM.

Regarding `Cc1cc2cc(O)ccc2[nH]1`, the growth inhibition in test [2] (at 25 µM (top of the series)) is 1.86% (inactive). On to `CCOc1ccc2[nH]cc(C(=O)OC)c2c1`, for which the IC90 in test [1] was greater than 25 µM. On to `Cc1ccc2oc(/N=C(\N)NC(=O)c3ccccc3)nc2c1`, for which the growth inhibition in test [2] (at 25 µM (top of the series)) was 5.09% (inactive).

With `CCOc1ccc(NC(=O)COc2ccc(C)cc2C)cc1`, the growth inhibition in test [2] (at 25 µM (top of the series)) was -3.23% (inactive). Same read-out and setting: the value for `Cc1cc2cc(F)ccc2n1-c1ccccc1` was 5.53% (inactive). Take `COc1ccc(Cl)cc1C(=O)Nc1nc2ccccc2[nH]1`: in test [1], the IC50 was 16.2 µM and the IC90 was greater than 25 µM. On to `COC(=O)c1sc(-c2ccc(C(C)(C)C)cc2)cc1NC(=O)CCC(=O)O`, for which, in test [1], the IC50 was 3.46 µM and 7.32 µM; the IC90 is greater than 25 µM.

In the case of `N/C(=N\c1nc2ccccc2o1)NC(=O)c1ccccc1Br`, in test [1], the IC50 was 3.04 µM and the IC90 is greater than 25 µM. The like results for `O=C(Nc1nc2ccccc2[nH]1)c1ccc(Cl)c(Cl)c1` were, in that order, 0.81 µM and greater than 25 µM. The like results for `Cc1onc(-c2c(Cl)cccc2Cl)c1/C(N)=N/OC(=O)C1CC1` were, in that order, 1.47 µM and greater than 25 µM. Turning to `CC(=O)c1c(C)n(-c2ccccc2)c2ccc(OS(=O)(=O)C(F)(F)F)cc12`, the IC90 in test [1] is greater than 25 µM. With `Cc1cccnc1NC(=S)NC(=O)c1cncc(Br)c1`, in test [1], the IC50 is 2.71 µM and the IC90 was greater than 25 µM. With `O=C(COc1cccc2ccccc12)Nc1nc2ccccc2s1`, the growth inhibition in test [2] (at 25 µM (top of the series)) is -6.75% (inactive). Consider `CCOc1ccc2nc(NC(=O)COc3ccc(F)cc3)sc2c1`, for which the growth inhibition in test [2] (at 25 µM (top of the series)) is -3.93% (inactive). Take `O=C(COc1ccc(Cl)cc1)Nc1nc2ccc(F)cc2s1`: in test [2] (at 25 µM (top of the series)), the growth inhibition is -1.17% (inactive). With `O=C(OC(C(=O)Nc1ccc(Cl)cc1C(F)(F)F)c1ccccc1)C1=COCCO1` (stereo not given), in test [1], the IC50 was 3.17 µM and the IC90 was greater than 25 µM.

As to `Cc1ccccc1OCC(=O)Nc1nnn(C)n1`, in test [2] (at 25 µM (top of the series)), the growth inhibition is 0.35% (inactive).

Regarding `O=C(COC(=O)C1CC1)c1c[nH]c2ccccc12`, in test [1], the IC50 was 0.25 µM and 0.64 µM; the IC90 was greater than 25 µM. `CC(C)(Oc1ccc(Cl)cc1)C(=O)Nc1nc2ccccc2s1`: the growth inhibition in test [2] (at 25 µM (top of the series)) is 1.22% (inactive). For `CC(=O)Nc1ccc2nc(NC(=O)COc3ccccc3)sc2c1`, the growth inhibition in test [2] (at 25 µM (top of the series)) was -0.49% (inactive). The same measure, in the same setting: the same measure for `CCCN1CC(O)=C(c2nc3ccccc3s2)C1=N`: 1.43% (inactive).

Consider `CC(=O)c1c(C)n(-c2cccc(Cl)c2)c2ccc(O)cc12`, for which the growth inhibition in test [2] (at 25 µM (top of the series)) is -2.38% (inactive). Still for that read-out and setting: the same measure for `N/C(=N\c1nc2ccccc2o1)NC(=O)COc1ccc2ccccc2c1`: -2.85% (inactive).

In the case of `CCOc1ccc2c(c1)cc(C)n2-c1ccccc1`, in test [1], the IC50 is 11.5 µM and the IC90 is greater than 25 µM. As for `CCOc1ccc2nc(NC(=O)COc3ccc(Cl)c(C)c3)sc2c1`, the growth inhibition in test [2] (at 25 µM (top of the series)) was -5.37% (inactive). For `N/C(=N\c1nc2cc(Cl)ccc2o1)NC(=O)c1ccccc1`, the growth inhibition in test [2] (at 25 µM (top of the series)) was -0.66% (inactive).

Regarding `Cc1cccc(C)c1OCC(=O)Nc1nc2ccccc2s1`, the growth inhibition in test [2] (at 25 µM (top of the series)) is -9.19% (inactive). Turning to `Cc1ccc(OCC(=O)Nc2cccc3ncccc23)c(C)c1`, the growth inhibition in test [2] (at 25 µM (top of the series)) was 1.76% (inactive).

Turning to `CC(Oc1ccc(Cl)cc1)C(=O)Nc1nc2ccccc2s1` (stereo not given), the growth inhibition in test [2] (at 25 µM (top of the series)) is -2.09% (inactive). Still for that read-out and setting: the value for `O=C(Cc1csc(-c2ccccc2F)n1)Nc1nc2ccccc2[nH]1` was 1.69% (inactive). For `CC(=O)c1c(C)n(-c2ccc(C)cc2)c2ccc(O)cc12`, the growth inhibition in test [2] (at 25 µM (top of the series)) is -1.38% (inactive). Take `O=C(Nc1nc2ccccc2[nH]1)c1cc2cc(Br)ccc2o1`: in test [2] (at 25 µM (top of the series)), the growth inhibition was -2.41% (inactive). Same read-out and setting: the value for `COc1ccc2nc(NC(=O)COc3ccc(C)cc3)sc2c1` was -3.26% (inactive). Still for that read-out and setting: the value for `CC(=O)Nc1ccc2nc(NC(=O)Cc3ccccc3)sc2c1` was -7.72% (inactive); that for `COc1ccc2nc(NC(=O)COc3ccc(Cl)cc3)sc2c1` was 0.35% (inactive). With `CN(NC(=O)c1c(Cl)cccc1Cl)c1cccc(Cl)n1`, in test [1], the IC50 was 15.5 µM and the IC90 was greater than 25 µM. Regarding `Cc1cc(C)c(OCC(=O)Nc2nc3ccccc3s2)c(Cl)c1`, in test [2] (at 25 µM (top of the series)), the growth inhibition is -6.55% (inactive). For `CCOc1ccc2c(c1)c(C(C)=O)c(C)n2Cc1ccco1`, the growth inhibition in test [2] (at 25 µM (top of the series)) was -2.87% (inactive). As for `CCOC(=O)c1cnc2cc(-c3ccc(C(C)(C)C)cc3)nn2c1N`, the IC90 in test [1] is greater than 25 µM.

As to `COc1cccc(NC(=O)C2CC2)c1`, in test [1], the IC50 was 0.58 µM and 3.28 µM; the 90% effect concentration (IC90) is greater than 25 µM. As for `CC(C)(C)c1ccc(OCC(=O)Nc2nc3ccccc3s2)cc1`, in test [2] (at 25 µM (top of the series)), the growth inhibition was -9.97% (inactive). On the same count and under the same terms, the value for `Cc1cc2ccccc2[nH]1` was 0.33% (inactive). Turning to `Cc1ccc(OCC(=O)Nc2cccc3ccccc23)c(C)c1`, in test [1], the IC50 was 20.5 µM and the IC90 was greater than 25 µM. In the case of `CCOC(=O)COc1nc(-c2ccc(Cl)cc2)cc(-c2ccco2)c1C#N`, in test [1], the IC50 is 6.8 µM and 4.07 µM; the 90% effect concentration (IC90) was greater than 25 µM. As for `CC(=O)c1c(C)n(-c2ccccc2)c2ccc(O)cc12`, in test [1], the half-inhibitory concentration (IC50) was 20.1 µM and the IC90 is greater than 25 µM. On to `O=C(COC(=O)C1=COCCO1)Nc1ccc2c(c1)OCO2`, for which, in test [1], the IC50 was 9.76 µM and the IC90 was greater than 25 µM. Taken in the same sequence, the figures for `N/C(=N\c1nc2ccccc2o1)NC(=O)c1ccc(F)cc1` were 9.64 µM and greater than 25 µM. Taken in the same sequence, the figures for `c1ccc(Nc2ncnc3c2oc2ccccc23)cc1` were 5.29 µM and greater than 25 µM. On to `CCOc1ccc2c(c1)c(C(C)=O)c(C)n2-c1ccccc1`, for which, in test [1], the IC50 is 0.66 µM and 0.52 µM; the IC90 is > 18.8 µM and 2.79 µM. In the case of `COc1ccc(C(=O)Nc2ccc3nc(N4CCCCC4)cc(C)c3c2)c(OC)c1`, in test [1], the IC50 is 17.6 µM and the IC90 is greater than 25 µM. `Cc1ccc(OCC(=O)Nc2ccc3c4c(cccc24)CC3)c(C)c1`: in test [1], the IC50 is 0.91 µM and 6.11 µM; the IC90 was greater than 25 µM. With `O=C(COc1ccc2ccccc2c1)Nc1nc2ccccc2[nH]1`, in test [1], the IC50 was 8.87 µM and the IC90 is greater than 25 µM. The like results for `CCOc1ccc2c(c1)c(CC)c(C)n2-c1ccccc1` were, in that order, 4.42 µM and greater than 25 µM. For `Cc1c(OCc2ccc(C(=O)O)cc2)ccc2c(-c3ccccc3)cc(=O)oc12`, in test [1], the IC50 was 3.3 µM and 3.99 µM; the IC90 is greater than 25 µM.

Take `c1ccc(OCc2nnc(-c3ccccc3)o2)cc1`: in test [1], the IC50 was 15 µM and 5.67 µM; the IC90 is greater than 25 µM.

Regarding `CCOc1ccc2c(c1)c(C(C)=O)c(C)n2-c1cccc(Cl)c1`, in test [1], the IC50 is 10.5 µM and the IC90 is greater than 25 µM. As for `COc1ccc2oc(C(=O)Nc3nc4ccccc4[nH]3)c(C)c2c1`, the 90% effect concentration (IC90) in test [1] is greater than 25 µM.

On to `CCOc1ccc2nc(NC(=O)C3(c4ccccc4)CCCC3)sc2c1`, for which, in test [1], the IC50 is 1.2 µM and the IC90 worked out at 4.16 µM.

In the case of `O=C(Nc1ccccc1)Nc1csc2ccccc12`, in test [1], the IC50 was 0.49 µM and 0.2 µM; the IC90 was greater than 25 µM. With `OCCCc1cn(-c2ccccc2)c2ccccc12`, in test [1], the IC50 is 14.2 µM and the IC90 is greater than 25 µM.
